Source: patent US12035738B2, “Low calorie food compositions” (Mars, Incorporated, priority 2015, dated 2024)

Assays:
[1] = Previous tolerability study (H-09-2011), cellobiose consumed as a drink in water based solution; type: in vivo, humans
Protocol: (§1) A number of gastro-intestinal symptoms were reported by the panelists in the 24 hours following the sensory sessions, the most common being flatulence (10/10 on at least 1 occasion) and bowel sounds (8/10 on at least 1 occasion). Some degree of […] discomfort was reported by 7/10 panelists on 1 or more occasions and 5 out of the 10 panelists suffered diarrhea following 1 or more sessions. A previous tolerability study carried out using cellobiose (H-09-2011) examined GI effects when cellobiose was delivered in a water based solution and used only male subjects aged between 18-35 yrs. The number and severity of symptoms seen in this study was not expected given the previous tolerability results where cellobiose was consumed as a drink (10, 20, 30 or 50 g of cellobiose was dissolved in 200 ml of hot water and allowed to cool to room temperature overnight). […] With the consumption of 30 g, 4 people (31%) experienced short duration abdominal pain (ranging in severity from 1 to 3 out of 5), 2 people (15%) reported mild flatulence (severity 1 out of 5) and one person reported this at a severity of 3 out of 5. […] Six subjects (46%) reported flatulence (range 1-4 out of 5), and 4 experienced abdominal pain (severity between 1-2 out of 5). Three quarters of subjects were happy to take part in future studies involving the ingestion of cellobiose, even at the highest dose.

[2] = administered to humans as a drink; cited from earlier work
[3] = parameters: species or system humans; conditions: in vivo
Protocol: A panel of 10 assessors were used to evaluate sensory differences between cellobiose containing (2 levels; 75% and 100% sucrose substitution) and standard chocolate.
The maximum amount of cellobiose consumed during one 3 hour sensory session was set at 20 g and 8 g respectively (100% cellobiose sample contained 49.5 g cellobiose/100 g, 75% cellobiose sample contained 34.7 g/100 g and 60% inulin sample contained 29.7 g inulin/100 g).
For each attribute, panelists were presented with all samples (˜3.5 g sample size) allowing comparative assessment. Panelists first determined rank order and then assigned ratings using separate line scales for each sample/attribute.
All samples were presented in 2 oz plastic pots labelled with random 3 digit codes. Panelists were provided with unsalted cracker (Rakusen, U.K.), green apple slices and mineral water (Evian, France) for palate cleansing. Attributes were assessed in blocks of 2 followed by 15 mins rest breaks.
as §1

[4] = 30 g cellobiose, severity 1 out of 5

panelists reporting bowel sounds ([3]; human, 24 h): 8/10 | panelists reporting flatulence ([3]; human, 24 h): 10/10 | panelists reporting some degree of abominable discomfort ([3]; human, 24 h): 7/10 | panelists who suffered diarrhea ([3]; human, 24 h): 5 out of the 10 panelists | Symptoms (y/n) [3]: Y
SMILES: O=C[C@H](O)[C@@H](O)[C@H](O[C@@H]1O[C@H](CO)[C@@H](O)[C@H](O)[C@H]1O)[C@H](O)CO [cellobiose]
abdominal symptoms reported ([1]; 10 g cellobiose in 200 ml water): mild or no abdominal symptoms | abdominal symptoms reported ([1]; 20 g cellobiose in 200 ml water): mild or no abdominal symptoms | people who experienced short duration abdominal pain ([1]; 30 g cellobiose): 4 people | persons who reported flatulence at a severity of 3 out of 5 ([1]; 30 g cellobiose): one | severity of mild flatulence ([1]; 30 g cellobiose): 1 out of 5 | share of people with short duration abdominal pain ([1]; 30 g cellobiose): 31% | people who reported mild flatulence [1, 4]: 2 people | share of people with mild flatulence [1, 4]: 15% | abdominal pain severity ([1]; 50 g cellobiose): 1-2 out of 5 | flatulence severity range ([1]; 50 g cellobiose): 1-4 out of 5 | persons who reported diarrhea in the first 24 h ([1]; 50 g cellobiose): 1 | persons with a single episode of diarrhea 2 h after consuming ([1]; 50 g cellobiose): 1 person | share of subjects who reported flatulence ([1]; 50 g cellobiose): 46% | subjects who experienced abdominal pain ([1]; 50 g cellobiose): 4 | subjects who reported flatulence ([1]; 50 g cellobiose): Six | unpleasant side effects [2]: not observed to such a great degree | undesirable side effects [3]: stomach cramps, nausea, diarrhea and loss of appetite
